The target of test [1] is Vascular endothelial growth factor receptor 1 (Homo sapiens) (UniProt P17948). Description: Inhibition of human FLT1 at 500 nM by HotSpot assay relative to control.
Test [2] deals with T1, Ephrin type-A receptor 1 (Homo sapiens) (UniProt P21709).
T1 sequence (whole entry): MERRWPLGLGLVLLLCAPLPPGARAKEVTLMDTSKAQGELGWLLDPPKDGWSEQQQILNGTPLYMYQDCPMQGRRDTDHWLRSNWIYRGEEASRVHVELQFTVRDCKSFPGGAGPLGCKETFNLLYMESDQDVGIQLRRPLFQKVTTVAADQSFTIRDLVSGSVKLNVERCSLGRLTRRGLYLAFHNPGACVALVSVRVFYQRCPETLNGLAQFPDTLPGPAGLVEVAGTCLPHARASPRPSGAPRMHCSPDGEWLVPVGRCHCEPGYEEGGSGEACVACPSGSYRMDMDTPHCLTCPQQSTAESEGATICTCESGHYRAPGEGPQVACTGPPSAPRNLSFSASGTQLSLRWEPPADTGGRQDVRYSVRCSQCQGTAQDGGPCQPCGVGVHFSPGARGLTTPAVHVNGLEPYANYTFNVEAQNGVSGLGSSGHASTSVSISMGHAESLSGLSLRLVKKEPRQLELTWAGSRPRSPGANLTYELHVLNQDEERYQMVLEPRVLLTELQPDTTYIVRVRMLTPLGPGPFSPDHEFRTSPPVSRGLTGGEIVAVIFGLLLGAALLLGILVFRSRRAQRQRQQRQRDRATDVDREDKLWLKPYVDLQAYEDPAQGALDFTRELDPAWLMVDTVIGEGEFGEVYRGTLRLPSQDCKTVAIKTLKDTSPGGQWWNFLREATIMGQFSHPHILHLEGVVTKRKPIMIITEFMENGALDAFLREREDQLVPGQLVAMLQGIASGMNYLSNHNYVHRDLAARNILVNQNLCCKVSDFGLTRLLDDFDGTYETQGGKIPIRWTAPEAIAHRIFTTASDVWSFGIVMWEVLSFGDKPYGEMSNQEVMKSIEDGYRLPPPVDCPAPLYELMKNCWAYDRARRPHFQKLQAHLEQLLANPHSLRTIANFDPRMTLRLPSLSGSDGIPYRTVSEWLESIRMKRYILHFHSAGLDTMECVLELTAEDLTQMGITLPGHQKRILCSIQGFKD
Description: Inhibition of human EPHA1 at 500 nM by HotSpot assay relative to control.

Test [3] concerns the target Serine/threonine-protein kinase Chk2 (Homo sapiens) (UniProt O96017). Description: Inhibition of human CHK2 at 500 nM by HotSpot assay relative to control.
Test [4] addresses T2, cAMP-dependent protein kinase catalytic subunit PRKX (Homo sapiens) (UniProt P51817).
T2 sequence (whole entry): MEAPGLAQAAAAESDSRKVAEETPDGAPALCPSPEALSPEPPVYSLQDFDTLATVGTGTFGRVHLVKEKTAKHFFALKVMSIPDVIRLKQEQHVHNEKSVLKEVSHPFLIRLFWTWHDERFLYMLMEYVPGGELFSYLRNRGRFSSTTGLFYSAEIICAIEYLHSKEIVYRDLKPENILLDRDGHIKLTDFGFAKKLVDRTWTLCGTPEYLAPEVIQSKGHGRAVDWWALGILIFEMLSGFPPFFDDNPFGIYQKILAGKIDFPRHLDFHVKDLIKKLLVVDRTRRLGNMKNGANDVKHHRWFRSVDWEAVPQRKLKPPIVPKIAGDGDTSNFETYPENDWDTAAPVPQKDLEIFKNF
Description: Inhibition of human PRKX at 500 nM by HotSpot assay relative to control.

Test [5] deals with Serine/threonine-protein kinase MRCK alpha (Homo sapiens) (UniProt Q5VT25). Description: Inhibition of human CDC42BPA at 500 nM by HotSpot assay relative to control.
The target in test [6] is T3, Serine/threonine-protein kinase Chk1 (Homo sapiens) (UniProt O14757).
T3 sequence (whole entry): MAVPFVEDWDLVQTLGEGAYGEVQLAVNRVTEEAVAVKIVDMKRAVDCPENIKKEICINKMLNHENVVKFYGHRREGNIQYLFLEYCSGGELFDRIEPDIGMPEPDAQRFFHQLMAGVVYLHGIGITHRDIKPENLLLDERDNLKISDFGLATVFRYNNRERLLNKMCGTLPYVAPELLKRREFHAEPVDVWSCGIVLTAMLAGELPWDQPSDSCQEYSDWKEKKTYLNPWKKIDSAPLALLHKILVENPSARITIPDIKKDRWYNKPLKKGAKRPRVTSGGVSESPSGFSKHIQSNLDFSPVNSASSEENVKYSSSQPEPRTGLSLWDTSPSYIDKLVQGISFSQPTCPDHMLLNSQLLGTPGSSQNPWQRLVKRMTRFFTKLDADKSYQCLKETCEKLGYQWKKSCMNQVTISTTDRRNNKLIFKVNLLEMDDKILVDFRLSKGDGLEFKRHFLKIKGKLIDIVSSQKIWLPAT
Description: Inhibition of human CHK1 at 500 nM by HotSpot assay relative to control.

The target in test [7] is Vascular endothelial growth factor receptor 2 (Homo sapiens) (UniProt P35968). The experiment in a line: Inhibition of human KDR at 500 nM by HotSpot assay relative to control.
For test [8], the target named is Calcium/calmodulin-dependent protein kinase type 1B (Homo sapiens) (UniProt Q6P2M8). Description: Inhibition of human CAMK1b at 500 nM by HotSpot assay relative to control.
The target in test [9] is RAF proto-oncogene serine/threonine-protein kinase (Homo sapiens) (UniProt P04049). The experiment in a line: Inhibition of human RAF1 at 500 nM by HotSpot assay relative to control.
Test [10] addresses T4, Serine/threonine-protein kinase A-Raf (Homo sapiens) (UniProt P10398).
T4 sequence (whole entry): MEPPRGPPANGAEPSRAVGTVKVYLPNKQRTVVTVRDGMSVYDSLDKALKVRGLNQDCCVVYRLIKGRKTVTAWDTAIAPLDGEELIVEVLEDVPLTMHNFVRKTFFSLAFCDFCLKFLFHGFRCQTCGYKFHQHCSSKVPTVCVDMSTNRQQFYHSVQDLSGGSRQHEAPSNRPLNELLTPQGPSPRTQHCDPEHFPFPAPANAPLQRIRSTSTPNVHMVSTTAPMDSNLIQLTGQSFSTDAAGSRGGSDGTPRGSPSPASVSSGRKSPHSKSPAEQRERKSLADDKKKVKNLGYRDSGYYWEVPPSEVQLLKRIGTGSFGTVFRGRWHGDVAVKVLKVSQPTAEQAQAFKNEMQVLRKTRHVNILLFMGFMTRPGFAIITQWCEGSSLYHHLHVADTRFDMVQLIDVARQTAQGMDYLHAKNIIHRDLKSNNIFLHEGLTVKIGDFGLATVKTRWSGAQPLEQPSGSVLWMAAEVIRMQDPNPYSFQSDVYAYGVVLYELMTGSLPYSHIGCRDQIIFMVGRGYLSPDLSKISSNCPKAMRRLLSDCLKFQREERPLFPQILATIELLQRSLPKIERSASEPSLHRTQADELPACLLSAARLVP
The experiment in a line: Inhibition of human ARAF at 500 nM by HotSpot assay relative to control.

Experimental findings from ChEMBL document CHEMBL5653615 (J Biol Chem, 2013) are described below.

RAF proto-oncogene serine/threonine-protein kinase (Homo sapiens), sequence (P04049 whole entry): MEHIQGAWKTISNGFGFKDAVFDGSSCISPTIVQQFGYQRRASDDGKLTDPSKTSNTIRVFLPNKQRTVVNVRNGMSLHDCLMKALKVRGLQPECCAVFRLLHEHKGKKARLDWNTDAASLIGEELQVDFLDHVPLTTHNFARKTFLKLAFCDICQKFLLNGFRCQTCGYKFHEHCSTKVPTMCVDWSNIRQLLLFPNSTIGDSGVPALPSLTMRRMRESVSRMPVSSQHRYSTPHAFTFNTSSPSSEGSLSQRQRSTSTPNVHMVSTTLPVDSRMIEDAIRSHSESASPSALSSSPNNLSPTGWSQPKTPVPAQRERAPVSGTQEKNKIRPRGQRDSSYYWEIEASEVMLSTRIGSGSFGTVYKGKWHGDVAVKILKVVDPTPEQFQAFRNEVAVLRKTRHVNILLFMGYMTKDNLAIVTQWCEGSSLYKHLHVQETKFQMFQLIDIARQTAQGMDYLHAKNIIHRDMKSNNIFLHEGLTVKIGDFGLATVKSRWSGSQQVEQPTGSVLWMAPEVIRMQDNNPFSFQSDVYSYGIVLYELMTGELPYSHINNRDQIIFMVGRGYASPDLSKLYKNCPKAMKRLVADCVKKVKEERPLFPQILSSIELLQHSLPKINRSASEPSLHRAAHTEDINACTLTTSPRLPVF
Calcium/calmodulin-dependent protein kinase type 1B (Homo sapiens), sequence (Q6P2M8 whole entry): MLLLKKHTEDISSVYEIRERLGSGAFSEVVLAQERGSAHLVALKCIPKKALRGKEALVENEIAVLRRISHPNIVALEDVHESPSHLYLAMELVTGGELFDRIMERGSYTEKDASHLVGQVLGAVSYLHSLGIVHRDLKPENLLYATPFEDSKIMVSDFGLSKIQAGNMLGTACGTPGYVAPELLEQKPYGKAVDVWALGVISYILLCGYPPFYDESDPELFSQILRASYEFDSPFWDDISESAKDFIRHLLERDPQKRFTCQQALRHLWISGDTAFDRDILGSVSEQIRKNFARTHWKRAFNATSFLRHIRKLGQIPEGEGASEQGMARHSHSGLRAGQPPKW
Vascular endothelial growth factor receptor 2 (Homo sapiens), sequence (P35968 whole entry): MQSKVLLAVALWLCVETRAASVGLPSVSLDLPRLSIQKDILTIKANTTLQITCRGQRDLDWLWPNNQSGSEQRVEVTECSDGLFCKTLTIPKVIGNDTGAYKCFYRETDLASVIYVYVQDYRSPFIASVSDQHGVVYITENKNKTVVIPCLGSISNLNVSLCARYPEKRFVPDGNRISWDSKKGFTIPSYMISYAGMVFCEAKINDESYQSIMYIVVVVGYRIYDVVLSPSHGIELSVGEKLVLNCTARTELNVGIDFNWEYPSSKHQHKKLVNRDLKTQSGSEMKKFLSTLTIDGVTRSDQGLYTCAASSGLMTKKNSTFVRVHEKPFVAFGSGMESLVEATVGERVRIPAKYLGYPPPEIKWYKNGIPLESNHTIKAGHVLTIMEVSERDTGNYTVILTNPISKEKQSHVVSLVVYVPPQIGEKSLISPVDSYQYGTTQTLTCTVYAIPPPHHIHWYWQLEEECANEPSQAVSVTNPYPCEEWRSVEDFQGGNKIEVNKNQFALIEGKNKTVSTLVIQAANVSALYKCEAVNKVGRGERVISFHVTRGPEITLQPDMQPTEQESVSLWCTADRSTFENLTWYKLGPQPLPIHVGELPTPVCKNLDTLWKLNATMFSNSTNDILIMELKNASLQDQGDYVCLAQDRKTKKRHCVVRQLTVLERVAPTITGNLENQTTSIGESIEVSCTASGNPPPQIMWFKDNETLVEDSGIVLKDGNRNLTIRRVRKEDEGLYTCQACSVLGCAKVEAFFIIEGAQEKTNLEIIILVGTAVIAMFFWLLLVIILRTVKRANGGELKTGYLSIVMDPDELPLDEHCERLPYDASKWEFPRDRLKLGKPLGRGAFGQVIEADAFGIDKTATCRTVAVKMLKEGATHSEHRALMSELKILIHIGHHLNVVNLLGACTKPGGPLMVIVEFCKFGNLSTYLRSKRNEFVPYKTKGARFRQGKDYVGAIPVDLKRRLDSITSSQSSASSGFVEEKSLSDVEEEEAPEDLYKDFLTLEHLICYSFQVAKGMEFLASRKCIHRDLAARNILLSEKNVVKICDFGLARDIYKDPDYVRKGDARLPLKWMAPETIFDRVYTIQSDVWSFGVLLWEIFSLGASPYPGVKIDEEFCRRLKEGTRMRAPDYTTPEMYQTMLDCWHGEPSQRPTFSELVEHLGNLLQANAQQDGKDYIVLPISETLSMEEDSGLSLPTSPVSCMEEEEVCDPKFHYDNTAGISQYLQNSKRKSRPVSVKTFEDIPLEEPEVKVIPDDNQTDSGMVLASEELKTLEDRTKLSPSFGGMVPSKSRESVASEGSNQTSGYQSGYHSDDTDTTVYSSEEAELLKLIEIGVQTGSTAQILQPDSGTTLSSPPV
Serine/threonine-protein kinase Chk2 (Homo sapiens), sequence (O96017 whole entry): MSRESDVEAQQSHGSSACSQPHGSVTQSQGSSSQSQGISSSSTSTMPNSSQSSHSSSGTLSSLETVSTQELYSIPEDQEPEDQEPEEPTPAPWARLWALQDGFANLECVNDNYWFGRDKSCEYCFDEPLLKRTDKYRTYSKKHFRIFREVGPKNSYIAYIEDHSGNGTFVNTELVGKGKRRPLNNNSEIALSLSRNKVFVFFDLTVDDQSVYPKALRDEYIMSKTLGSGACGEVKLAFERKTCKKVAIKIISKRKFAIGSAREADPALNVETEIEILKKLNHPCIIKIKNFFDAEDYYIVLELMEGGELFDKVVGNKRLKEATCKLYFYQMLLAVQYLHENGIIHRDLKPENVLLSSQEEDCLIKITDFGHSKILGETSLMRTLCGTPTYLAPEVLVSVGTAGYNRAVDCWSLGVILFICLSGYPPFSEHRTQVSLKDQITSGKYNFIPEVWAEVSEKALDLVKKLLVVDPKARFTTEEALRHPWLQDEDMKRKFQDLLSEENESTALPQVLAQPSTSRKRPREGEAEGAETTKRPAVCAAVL
Vascular endothelial growth factor receptor 1 (Homo sapiens), sequence (P17948 whole entry): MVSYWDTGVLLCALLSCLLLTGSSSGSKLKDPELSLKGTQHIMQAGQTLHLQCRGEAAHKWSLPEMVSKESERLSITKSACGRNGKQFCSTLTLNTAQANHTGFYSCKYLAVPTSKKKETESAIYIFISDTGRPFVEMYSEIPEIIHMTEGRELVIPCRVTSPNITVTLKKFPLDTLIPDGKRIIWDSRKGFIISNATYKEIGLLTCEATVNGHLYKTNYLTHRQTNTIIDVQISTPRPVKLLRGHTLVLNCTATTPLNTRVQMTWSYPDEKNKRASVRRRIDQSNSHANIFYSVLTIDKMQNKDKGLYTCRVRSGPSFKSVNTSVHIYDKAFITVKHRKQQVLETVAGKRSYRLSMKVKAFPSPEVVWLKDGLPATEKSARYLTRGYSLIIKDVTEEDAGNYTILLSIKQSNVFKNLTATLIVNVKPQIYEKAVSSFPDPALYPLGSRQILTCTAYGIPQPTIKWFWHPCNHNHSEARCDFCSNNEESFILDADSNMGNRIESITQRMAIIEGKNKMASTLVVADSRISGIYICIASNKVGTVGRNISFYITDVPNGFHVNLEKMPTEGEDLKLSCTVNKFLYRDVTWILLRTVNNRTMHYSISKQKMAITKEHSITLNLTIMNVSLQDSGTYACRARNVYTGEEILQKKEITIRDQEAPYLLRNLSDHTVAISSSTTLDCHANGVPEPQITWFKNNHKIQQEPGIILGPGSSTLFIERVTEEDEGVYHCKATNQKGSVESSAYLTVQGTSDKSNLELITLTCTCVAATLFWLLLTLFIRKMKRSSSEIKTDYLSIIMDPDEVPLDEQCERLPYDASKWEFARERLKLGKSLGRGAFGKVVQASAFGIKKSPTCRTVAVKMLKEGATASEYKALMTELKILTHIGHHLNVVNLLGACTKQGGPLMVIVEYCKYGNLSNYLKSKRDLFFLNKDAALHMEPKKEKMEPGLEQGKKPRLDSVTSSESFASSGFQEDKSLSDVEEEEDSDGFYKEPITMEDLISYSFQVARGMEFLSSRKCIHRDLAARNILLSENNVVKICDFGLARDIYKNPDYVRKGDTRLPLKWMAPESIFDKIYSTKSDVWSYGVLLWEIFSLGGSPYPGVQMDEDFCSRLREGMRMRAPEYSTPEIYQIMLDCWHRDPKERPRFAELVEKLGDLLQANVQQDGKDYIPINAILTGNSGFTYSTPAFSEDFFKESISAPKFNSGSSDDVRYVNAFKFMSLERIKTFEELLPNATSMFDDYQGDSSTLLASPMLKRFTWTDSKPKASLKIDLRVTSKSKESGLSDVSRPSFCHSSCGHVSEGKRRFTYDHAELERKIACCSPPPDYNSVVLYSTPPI

For orientation: inhibition means the relative decrease from the control value, in per cent. Regarding `Oc1n[nH]c2nnc(-c3c(-c4ccccc4)nn4ccccc34)cc12`, the inhibition was 0.38% in [1]; 4.34% in test [2]; 1.86% in [3]; -3.08% in test [4]; 6.74% in test [5]; -1.38% in test [6]. Also, the inhibition in test [7] is -5.2%; in [8] it was -0.91%; in test [9], 1.96%; in test [10], 2.19%.

On to `Nc1n[nH]c2nnc(-c3c(-c4ccccc4)nn4ccccc34)cc12`, for which the inhibition is 3.34% in [1]; 7.41% in test [2]; 2.97% in [3]; -0.73% in [4]; 10.3% in test [5]; -3.37% in test [6]. For the same compound, the inhibition in test [7] is -1.19%; in test [8] it was 0.39%; in test [9], 4.42%; in test [10] it was 1.59%.
